Measurements taken from the Kinase Knowledgebase extract (Sharma et al. 2016).
pIC50: −log10 of the molar value.

target: EGFR (human), P00533 [WT]
Sequence (P00533 whole entry, looked up): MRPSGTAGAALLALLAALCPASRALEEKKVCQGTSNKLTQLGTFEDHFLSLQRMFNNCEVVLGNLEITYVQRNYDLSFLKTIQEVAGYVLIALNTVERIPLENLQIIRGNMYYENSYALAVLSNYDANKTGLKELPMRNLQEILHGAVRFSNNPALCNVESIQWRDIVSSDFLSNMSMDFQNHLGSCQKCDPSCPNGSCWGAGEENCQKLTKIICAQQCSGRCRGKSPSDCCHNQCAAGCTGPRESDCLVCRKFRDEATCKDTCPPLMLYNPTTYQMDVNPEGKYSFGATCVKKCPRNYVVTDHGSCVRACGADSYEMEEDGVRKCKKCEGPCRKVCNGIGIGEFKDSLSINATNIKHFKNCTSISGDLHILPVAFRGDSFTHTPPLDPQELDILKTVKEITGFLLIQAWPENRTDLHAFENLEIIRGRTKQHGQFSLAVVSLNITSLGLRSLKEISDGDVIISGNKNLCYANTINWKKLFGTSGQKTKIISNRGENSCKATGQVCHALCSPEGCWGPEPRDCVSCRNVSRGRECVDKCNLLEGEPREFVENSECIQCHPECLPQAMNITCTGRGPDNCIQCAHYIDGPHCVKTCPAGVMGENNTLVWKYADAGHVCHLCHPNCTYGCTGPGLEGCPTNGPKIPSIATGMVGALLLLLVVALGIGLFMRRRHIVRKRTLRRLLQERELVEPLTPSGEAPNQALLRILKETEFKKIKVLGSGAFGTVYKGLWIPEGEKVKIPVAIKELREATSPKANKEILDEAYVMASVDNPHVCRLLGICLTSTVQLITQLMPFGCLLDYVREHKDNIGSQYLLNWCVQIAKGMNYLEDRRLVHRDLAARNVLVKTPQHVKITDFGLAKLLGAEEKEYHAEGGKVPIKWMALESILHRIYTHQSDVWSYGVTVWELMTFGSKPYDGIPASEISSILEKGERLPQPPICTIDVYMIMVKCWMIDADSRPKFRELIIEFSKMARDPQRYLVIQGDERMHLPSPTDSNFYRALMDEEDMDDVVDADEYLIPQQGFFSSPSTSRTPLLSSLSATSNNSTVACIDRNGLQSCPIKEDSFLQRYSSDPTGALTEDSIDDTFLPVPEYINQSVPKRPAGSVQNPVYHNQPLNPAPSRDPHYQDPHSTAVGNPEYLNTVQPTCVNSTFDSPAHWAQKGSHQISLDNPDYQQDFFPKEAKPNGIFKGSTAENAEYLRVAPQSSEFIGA

| SMILES | pIC50 |
| --- | --- |
| C=CC(=O)Nc1cccc(Nc2nc(Nc3cccc(OCCCN4CCCC4=O)c3)ncc2F)c1 | ≥ 8.00 |
| C=CC(=O)Nc1cccc(Nc2nc(Nc3ccc(OCC4CCN(C)CC4)nc3)ncc2F)c1 | ≥ 8.00 |
| C=CC(=O)Nc1cccc(Nc2nc(Nc3cccc(S(N)(=O)=O)c3)ncc2C)c1 | ≥ 8.00 |
| C=CC(=O)Nc1cccc(Nc2nc(Nc3cccc(CO)c3)ncc2F)c1 | ≥ 8.00 |
| C=C(C)C(=O)Cc1cccc(Nc2nc(Nc3ccc(OCCOC)c(F)c3)ncc2F)c1 | ≥ 8.00 |
| C=CC(=O)Nc1cccc(Nc2nc(Nc3ccc(OC)nc3)ncc2C2CC2)c1 | ≥ 8.00 |
| Cc1cccc(Nc2nc(Nc3cccc(NC(=O)/C=C/CN4CC[C@H](O)C4)c3)ncc2F)c1 | ≥ 8.00 |
| C=CC(=O)Nc1cccc(Nc2nc(Nc3cccc(OCC4CCN(C)CC4)c3)ncc2F)c1 | ≥ 8.00 |
| C=CC(=O)N1CCOc2ccc(Nc3nc(Nc4ccc(OCCOC)cc4)ncc3C(C)=O)cc21 | ≥ 8.00 |
| C=CC(=O)Nc1cccc(Nc2nc(Nc3ccc(OCCOC)cc3)ncc2F)c1 | ≥ 8.00 |
| C=CC(=O)Nc1cccc(Nc2nc(Nc3ccc(OCCCNC(=O)OC(C)(C)C)cc3)ncc2F)c1 | ≥ 8.00 |
| Cc1cnc(Nc2cccc(S(N)(=O)=O)c2)nc1Nc1ccc2c(c1)CCN(C(=O)CCl)C2 | ≥ 8.00 |
| Cc1cccc(Nc2nc(Nc3cccc(NC(=O)/C=C/CN(C)C)c3)ncc2C)c1 | ≥ 8.00 |
| C=CC(=O)Nc1cccc(Nc2nc(Nc3ccc4[nH]ncc4c3)ncc2F)c1 | ≥ 8.00 |
| C=CC(=O)Nc1cccc(Oc2nc(Nc3ccc(OCCOC)cc3)ncc2C2CC2)c1 | ≥ 8.00 |
| C=CC(=O)Nc1cccc(Nc2nc(Nc3cccc(OCCN(C)C)c3)ncc2F)c1 | ≥ 8.00 |
| Cc1cccc(Nc2nc(Nc3cccc(NC(=O)/C=C/CN4CC[C@@H](O)C4)c3)ncc2F)c1 | ≥ 8.00 |
| C=CC(=O)Nc1cccc(Oc2nc(Nc3cccc(OC)c3)ncc2C(N)=O)c1 | ≥ 8.00 |
| C=CC(=O)Nc1cccc(Nc2nc(Nc3ccc(OCCOC)cc3)ncc2C#N)c1 | ≥ 8.00 |

| SMILES | pIC50 |
| --- | --- |
| COCCN(C)C/C=C/C(=O)Nc1cccc(Nc2ncc(F)c(Nc3cccc(C)c3)n2)c1 | ≥ 8.00 |
| C=CC(=O)Nc1cccc(Nc2nc(Nc3ccc4c(c3)CC(=O)N4)ncc2F)c1 | ≥ 8.00 |
| C=CC(=O)Nc1cccc(Nc2nc(Nc3ccccc3)ncc2C#N)c1 | ≥ 8.00 |
| C=CC(=O)Nc1cccc(Nc2nc(Nc3ccc(OCC4CCN(C)CC4)cc3)ncc2F)c1 | ≥ 8.00 |
| C=CC(=O)Nc1cccc(Oc2nc(Nc3cccc(OCCN4CCCC4=O)c3)ncc2F)c1 | ≥ 8.00 |
| C=CC(=O)N1CCC[C@@H](Nc2nc(Nc3cccc(Cl)c3)ncc2F)C1 | ≥ 8.00 |
| C=CC(=O)Nc1cccc(Nc2nccc(Nc3cccc(C)c3)n2)c1 | ≥ 8.00 |
| C=CC(=O)Nc1cccc(Nc2ncc(C)c(Nc3ccccc3)n2)c1 | ≥ 8.00 |
| C=CC(=O)Nc1cccc(Nc2nc(Nc3ccccc3)ncc2C(F)(F)F)c1 | ≥ 8.00 |
| C=CC(=O)Nc1cccc(Oc2nc(Nc3cccc(OCC4CCCN(C)C4)c3)ncc2F)c1 (centres undefined) | ≥ 8.00 |
| C=CC(=O)Nc1cccc(Oc2nc(Nc3ccc(OC)nc3)ncc2C)c1 | ≥ 8.00 |
| C=CC(=O)Nc1cccc(Nc2nc(Nc3ccc4c(cnn4C)c3)ncc2F)c1 | ≥ 8.00 |
| C=CC(=O)Nc1cccc(Nc2nc(Nc3ccc(OCC(O)CO)cc3)ncc2F)c1 (centres undefined) | ≥ 8.00 |
| C=CC(=O)Nc1ccc(C)c(Nc2ncc(C)c(Nc3cccc(C)c3)n2)c1 | ≥ 8.00 |
| C=CC(=O)Nc1cccc(Oc2nc(Nc3cccc(OCCCS(C)(=O)=O)c3)ncc2F)c1 | ≥ 8.00 |
| C=CC(=O)Nc1cccc(Nc2nc(Nc3cccc(OCC(O)CO)c3)ncc2F)c1 (centres undefined) | ≥ 8.00 |
| C=CC(=O)Nc1cccc(Oc2nc(Nc3ccc(OC)nc3)ncc2C(C)=O)c1 | ≥ 8.00 |
| C=CC(=O)Nc1cccc(Oc2nc(Nc3cccc(OC)c3)ncc2C(=O)NC2CC2)c1 | ≥ 8.00 |
| C=CC(=O)Nc1cccc(Nc2nc(Nc3ccc(OCCOC)c(F)c3)ncc2C(F)(F)F)c1 | ≥ 8.00 |

| SMILES | pIC50 |
| --- | --- |
| C=CC(=O)Nc1cccc(Oc2nc(Nc3cccc(OCC4CCN(C)CC4)c3)ncc2F)c1 | ≥ 8.00 |
| C=CC(=O)Nc1cccc(Oc2nc(Nc3ccccc3)ncc2C)c1 | ≥ 8.00 |
| C=CC(=O)Nc1cccc(Nc2nc(Nc3ccccc3)ncc2C)c1 | ≥ 8.00 |
| C=CC(=O)Nc1cccc(Oc2nc(Nc3cccc(N4CCN(CCO)CC4)c3)ncc2F)c1 | ≥ 8.00 |
| C=CC(=O)Nc1cccc(Nc2nc(Nc3ccc(N4CCS(=O)(=O)CC4)nc3)ncc2F)c1 | ≥ 8.00 |
| C=CC(=O)Nc1cccc(Nc2nc(Nc3cccc(S(N)(=O)=O)c3)ncc2F)c1 | ≥ 8.00 |
| C=CC(=O)Nc1cccc(Nc2nc(Nc3ccc4c(c3)NCCO4)ncc2F)c1 | ≥ 8.00 |
| C=CC(=O)Nc1cccc(Oc2nc(Nc3cccc(OC)c3)ncc2C(=O)Nc2ccccc2)c1 | ≥ 8.00 |
| C=CC(=O)Nc1cccc(Oc2nc(Nc3ccc(OC)nc3)ncc2C(=O)NC2CC2)c1 | ≥ 8.00 |
| C=CC(=O)Nc1cccc(Nc2nc(Nc3ccc(OCCOC)c(F)c3)ncc2C#N)c1 | ≥ 8.00 |
| C=CC(=O)Nc1cccc(Nc2nc(Nc3cccc(OCC4CCCN(C)C4)c3)ncc2F)c1 (centres undefined) | ≥ 8.00 |
| C=CC(=O)Nc1cccc(Oc2nc(Nc3cccc(OCCCN4CCCC4=O)c3)ncc2F)c1 | ≥ 8.00 |
| C=CC(=O)Nc1cccc(Nc2nc(Nc3ccc(OCC(O)CO)c(F)c3)ncc2F)c1 (centres undefined) | ≥ 8.00 |
| C=CC(=O)Nc1cccc(Nc2ncc(F)c(Nc3cccc(C)c3)n2)c1 | ≥ 8.00 |
| Cc1cccc(Nc2nc(Nc3cccc(NC(=O)/C=C/CN(C)C)c3)ncc2F)c1 | ≥ 8.00 |
| C=CC(=O)Nc1cccc(Nc2nc(Nc3ccc(OC)nc3)ncc2C#N)c1 | ≥ 8.00 |
| C=CC(=O)Nc1cccc(Oc2nc(Nc3ccc(OC)nc3)ncc2C(=O)Nc2ccccc2)c1 | ≥ 8.00 |
| C=CC(=O)Nc1ccc(Nc2nc(Nc3ccc(OC)nc3)ncc2C(F)(F)F)cc1 | ≥ 8.00 |
| C=CC(=O)N1CCOc2ccc(Nc3nc(Nc4ccc(N5CCOCC5)cc4)ncc3C(C)=O)cc21 | ≥ 8.00 |

target: EGFR (human) (UniProt P00533)
Sequence (P00533 whole entry, looked up): as above

| SMILES | pIC50 |
| --- | --- |
| C=CC(=O)Nc1ccc(C)c(Nc2nccc(-c3cccnc3)n2)c1 | 8.65 |

target: EGFR (human), P00533 [T790M]
Sequence (P00533 whole entry T790M, looked up): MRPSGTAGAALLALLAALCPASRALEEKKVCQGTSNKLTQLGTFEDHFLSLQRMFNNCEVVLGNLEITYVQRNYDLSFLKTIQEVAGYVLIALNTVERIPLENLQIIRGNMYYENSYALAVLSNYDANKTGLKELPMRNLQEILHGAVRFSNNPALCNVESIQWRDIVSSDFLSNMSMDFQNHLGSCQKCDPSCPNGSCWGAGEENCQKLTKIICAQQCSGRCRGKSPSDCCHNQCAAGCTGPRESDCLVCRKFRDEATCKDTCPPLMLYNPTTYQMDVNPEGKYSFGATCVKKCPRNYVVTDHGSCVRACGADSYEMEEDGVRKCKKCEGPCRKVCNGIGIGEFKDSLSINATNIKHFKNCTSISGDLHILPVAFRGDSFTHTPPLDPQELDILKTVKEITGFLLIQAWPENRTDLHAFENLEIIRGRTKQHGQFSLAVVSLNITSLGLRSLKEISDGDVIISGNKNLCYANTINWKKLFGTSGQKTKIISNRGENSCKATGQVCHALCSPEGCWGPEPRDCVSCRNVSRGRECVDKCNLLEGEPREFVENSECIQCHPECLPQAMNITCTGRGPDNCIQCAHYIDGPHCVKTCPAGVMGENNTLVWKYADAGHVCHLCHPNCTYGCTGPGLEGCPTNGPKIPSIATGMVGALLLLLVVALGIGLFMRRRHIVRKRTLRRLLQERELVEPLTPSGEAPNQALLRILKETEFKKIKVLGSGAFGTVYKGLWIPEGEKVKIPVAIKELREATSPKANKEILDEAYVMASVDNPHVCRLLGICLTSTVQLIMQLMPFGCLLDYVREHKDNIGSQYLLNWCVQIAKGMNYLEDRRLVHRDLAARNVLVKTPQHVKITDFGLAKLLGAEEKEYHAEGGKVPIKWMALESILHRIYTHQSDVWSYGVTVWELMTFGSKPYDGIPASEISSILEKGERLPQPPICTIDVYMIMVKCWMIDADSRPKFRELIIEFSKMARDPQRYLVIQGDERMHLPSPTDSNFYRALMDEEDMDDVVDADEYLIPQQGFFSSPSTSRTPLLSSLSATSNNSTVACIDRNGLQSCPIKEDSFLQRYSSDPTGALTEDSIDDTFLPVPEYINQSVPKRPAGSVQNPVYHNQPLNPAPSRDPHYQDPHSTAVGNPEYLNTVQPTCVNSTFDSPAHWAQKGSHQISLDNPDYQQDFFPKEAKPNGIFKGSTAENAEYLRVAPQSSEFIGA

| SMILES | pIC50 |
| --- | --- |
| C=CC(=O)Nc1cccc(Nc2ncc(C)c(Nc3cccc(C)c3)n2)c1 | ≥ 8.00 |
| C=CC(=O)Nc1cccc(Nc2nc(Nc3ccc(OCCOC)c(F)c3)ncc2F)c1 | ≥ 8.00 |
| C=CC(=O)Nc1cccc(Nc2ncc(F)c(Nc3cccc(C)c3)n2)c1 | ≥ 8.00 |
| Cc1cccc(Nc2nc(Nc3cccc(NC(=O)/C=C/CN(C)C)c3)ncc2F)c1 | ≥ 8.00 |

target: EGFR (Human), P00533 [T790M/L858R]
Sequence (P00533 whole entry T790M/L858R, looked up): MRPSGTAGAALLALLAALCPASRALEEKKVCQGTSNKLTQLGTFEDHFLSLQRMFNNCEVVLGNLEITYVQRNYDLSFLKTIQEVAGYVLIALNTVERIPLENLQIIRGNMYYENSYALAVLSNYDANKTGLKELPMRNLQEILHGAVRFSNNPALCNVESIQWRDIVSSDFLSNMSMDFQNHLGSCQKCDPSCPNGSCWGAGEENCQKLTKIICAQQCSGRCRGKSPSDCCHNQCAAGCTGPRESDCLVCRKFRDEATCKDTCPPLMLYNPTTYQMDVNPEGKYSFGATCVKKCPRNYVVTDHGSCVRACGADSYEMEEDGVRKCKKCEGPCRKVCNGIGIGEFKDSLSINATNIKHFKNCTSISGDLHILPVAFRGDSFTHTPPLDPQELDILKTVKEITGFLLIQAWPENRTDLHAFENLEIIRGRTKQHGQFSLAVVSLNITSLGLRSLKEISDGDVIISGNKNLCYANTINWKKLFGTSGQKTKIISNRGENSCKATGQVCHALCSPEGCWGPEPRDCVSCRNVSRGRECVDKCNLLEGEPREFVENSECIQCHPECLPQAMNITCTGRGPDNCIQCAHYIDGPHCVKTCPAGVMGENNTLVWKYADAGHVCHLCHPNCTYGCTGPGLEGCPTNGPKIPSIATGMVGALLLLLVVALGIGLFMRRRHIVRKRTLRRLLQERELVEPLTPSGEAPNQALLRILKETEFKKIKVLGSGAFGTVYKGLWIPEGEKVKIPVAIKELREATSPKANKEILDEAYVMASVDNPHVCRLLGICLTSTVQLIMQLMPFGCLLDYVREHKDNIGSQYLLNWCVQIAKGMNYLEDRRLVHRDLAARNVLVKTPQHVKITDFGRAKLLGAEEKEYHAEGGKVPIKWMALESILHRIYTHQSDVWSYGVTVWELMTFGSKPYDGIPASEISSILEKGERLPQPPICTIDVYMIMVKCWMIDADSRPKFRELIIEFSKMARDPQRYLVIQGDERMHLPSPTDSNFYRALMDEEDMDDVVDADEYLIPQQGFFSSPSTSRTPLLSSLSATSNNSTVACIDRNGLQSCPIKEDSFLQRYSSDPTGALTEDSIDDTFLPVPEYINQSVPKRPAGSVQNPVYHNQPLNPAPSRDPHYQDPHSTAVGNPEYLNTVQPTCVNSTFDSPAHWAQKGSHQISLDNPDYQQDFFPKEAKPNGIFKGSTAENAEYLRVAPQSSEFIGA

| SMILES | pIC50 |
| --- | --- |
| C#CCOc1cccc(Nc2ncc(C)c(Nc3cccc(NC(=O)C=C)c3)n2)c1 | ≥ 8.00 |
| Cc1cnc(Nc2cccc(S(N)(=O)=O)c2)nc1Nc1ccc2c(c1)CCN(C(=O)CCl)C2 | ≥ 8.00 |
| C=CC(=O)Nc1cccc(Nc2ncc(C)c(Nc3cccc(C)c3)n2)c1 | ≥ 8.00 |
| C=CC(=O)Nc1cccc(Nc2nc(Nc3ccc(OCCOC)c(F)c3)ncc2F)c1 | ≥ 8.00 |
| C=CC(=O)Nc1cccc(Nc2nccc(Nc3cccc(C)c3)n2)c1 | ≥ 8.00 |
| C=CC(=O)Nc1cccc(Nc2ncc(C)c(Nc3ccccc3)n2)c1 | ≥ 8.00 |
| C=CC(=O)Nc1ccc(C)c(Nc2ncc(C)c(Nc3cccc(C)c3)n2)c1 | ≥ 8.00 |
| C=CC(=O)Nc1ccc(C)c(Nc2nccc(-c3cccnc3)n2)c1 | ≥ 8.00 |
| Cc1cnc(Nc2ccccc2)nc1Nc1cccc(NC(=O)/C=C/CN(C)C)c1 | ≥ 8.00 |
| C=CC(=O)Nc1cccc(Nc2nc(Nc3ccccc3)ncc2C)c1 | ≥ 8.00 |
| C=CC(=O)Nc1cccc(Nc2ncc(F)c(Nc3cccc(C)c3)n2)c1 | ≥ 8.00 |
| Cc1cccc(Nc2nc(Nc3cccc(NC(=O)/C=C/CN(C)C)c3)ncc2F)c1 | ≥ 8.00 |
